{
  "source": "patent US20070059385A1",
  "about": "“Safe pharmaceutical composition for treating and preventing cancer and method of use” (priority 2005, published 2007)",
  "key": {"[1]": {"tested_on": "Human leukemia cells (HL-60)", "test": "Apoptosis of human leukemia cells", "format": "cell-based", "procedure": "Human leukemia cells (HL-60) were grown in RPMI Medium 1640 supplemented with 10% (v/v) heat-inactivated FBS (56° C. for 30 min) at 37° C. in a humidified 95% air/5% CO2 atmosphere. Cells were seeded at a level of 2×10^5 cells/ml. Cells were allowed to attain a maximum density of 1.2×10^6 cells/ml before being passed by dilution into fresh medium to a concentration of 2×10^5 cells/ml. […]\nFor evaluation of apoptosis by flow cytometry, cells were fixed and permeabilized in 1% paraformaldehyde and ice-cold 70% ethanol. Digoxigenin-dUTP was incorporated at the 3′OH ends of the fragmented DNA in the presence of terminal deoxynucleotidyltranserase, and the cells were incubated with FITC-labeled anti-digoxigenin-dUTP and with propidium iodide. Green (apoptotic cells) and orange (total DNA) fluorescence were measured with a FACScan flow cytometer and analyzed with LYSIS II and CELLFIT programs. Data were analyzed by Student's t-test. P values were considered significant when <0.05. […]\nApoptosis of HL-60 cells was assessed by changes in cell morphology and by measurement of DNA nicks using the Apop Tag Kkt (Oncor, Gaithersburg, Md.). […] These features make apoptotic cells relatively easy to distinguish from necrotic cells. These changes are detected on cytospin preparations stained with Diff-Quick Stain Set. Apoptotic cells were enumerated in a total of about 300 cells by light microscopy."}, "[2]": {"tested_on": "cancer cells", "test": "Inhibition of tumor cell proliferation", "format": "cell-based", "settings": "Homo sapiens; 1 μg/ml drug, 72 hours; read-out: Inhibition (%) of growth of cancer cells", "procedure": "Human tumor cell lines: Hela leukemia HL-60, malignant melanocarcinoma B 16, oral epidermoid carcinoma (KB), lung carcinoma (A549), breast carcinoma MCF-7, adenocarcinoma of stomach.\nAnimal tumor cell lines: Walker carcinoma, LLC-WRC-256, malignant melanoma (RMMI 1846), 3T3, and S-1 80 sarcoma (CCRF-180). All lines were routinely cultured in the RPMI1640 medium supplemented 20% fetal calf serum. The experiment was carried out in 96 microplate, each well had 5×10^5 cells and given desired concentration of 1 μg/ml (1×10^−6 g/ml) drug. Then the plate was incubated at 37° C. in an atmosphere of humidified air enriched with 5 percent carbon dioxide for 72 hours. Inhibition percent rate of tumor cell proliferation was obtained according to the bellow formula. [formula]"}, "[3]": {"tested_on": "tyrosine kinase (TK)", "test": "Tyrosine kinase (TK) assay in HL-60 leukemia cells", "format": "cell-based, human", "procedure": "Tyrosine kinase (TK) Assay: TK was measured by a modification of the method of Braun et al. Briefly, H-60 leukemia cells were plated at a density of 5×10^5 cells in […], and divided control and treatments groups for incubation 24 hours at 37° C. with 5% CO2. The cells were collected by scraping, washed twice with phosphate-buffered saline, and resuspended at density of 10^6 cells/ml in 5 mM HEPEs buffer (pH 7.4). The cells were then resuspended in 1 ml of buffer containing 5 mM HEPES (pH 7.6), 1 mM MgCl2 and 1 mM EDTA, then placed on ice bath. The cell membrane was disrupted by ultra sound and centrifuged at 1,000×g for 10 minutes. The supernatant was ultra centrifuged at 30,000×g for 30 minutes at 4° C. The pellet was resuspended in 0.3 ml of buffer containing 25 mM HEOES, centrifuged at 12,000×g for 5 minutes. The resulting supernatant was used for TK assay. Content of protein was determined. 10 μg of protein placed in 20 mM HEPES (pH 7.6), 15 mM MgCl2, 10 mM ZnCl2 and 5% (v/v) nonidet P-40, with or without substrate [glutamic acid (GT), mg/ml]. After 5 minutes incubation at 25° C., the reaction was initiated by the addition of 25 μM [γ^32P] ATP (3 ci/mmol). After 10 minutes, the reaction was stopped by the addition of 20 mM cold ATP. 50 μl of the mixtures were spotted on glass microfiber filter discs and washed three times with cold trichloroacetic acid (TCA), contained 10 mM sodium pyrophosphate. Air dried. Radioactivity was determined by liquid scintillation spectrometry. The net TK activity was determined after correcting for endogenous TK activity."}, "[4]": {"tested_on": "NNK-induced lung tumorigenesis", "test": "NNK-induced lung tumorigenesis", "format": "in vivo", "settings": "mice; drug 20 mg/kg daily by injection; 10 μmol NNK i.p.; pulmonary adenomas after sixteen weeks", "procedure": "Every group had 20 mice. […] For control group, each mouse was gave same volume of physiological saline. Three days later, mice were gave 10 μmol NNK (in 0.1 ml saline) by i.p. injection. Sixteen weeks after these treatments the mice were killed and pulmonary adenomas were counted. The statistical significance of bioassay data was determined by student's test."}, "[5]": {"tested_on": "TA98", "test": "Salmonella mutagenicity assay TA98", "procedure": "(§1) The method for detecting mutagenicity of HHT, with the Salmonella system that detects the reversion of the bacteria from His^− to His^+, is widely used.\n(§2) The bacterial tester strains used for mutagenesis testing are TA97, TA98, TA100 and TA102. Mutagenesis testing method was done as described previously ^[77-88]. In brief, TA97, TA98, TA100 and TA102 were grown in agar gel culture. The petri plats (100×15 mm style) contain 30 ml with 2% glucose. The agar mixture was agitated vigorously and immediately poured into plates of minimal agar. The cultures were incubated at 37° C. in a dark and 5% CO2 in air for 48 hours. After 48 hours the colonies in both test and controls are counted. The presence of a background lawn of bacteria on the histidine-poor soft agar plate was used as an indication that gross toxic effects were absent. Mutagenicity assays were carried out at least in triplicate.\n(§3) The range of spontaneous mutation rates for the individual strains, which were considered to be acceptable, was TA97 (100-170), TA98 (20-40) and TA100 (80-150)."}, "[6]": {"tested_on": "salmonella typhimurium strains TA97, TA98 and TA100", "test": "Salmonella mutagenicity assay, overall conclusion", "settings": "conclusion from Table 14", "procedure": "as §1, §2, §3"}, "[7]": {"tested_on": "gastric cancer cells", "test": "Cellular diversion of gastric cancer cells (NBT)", "format": "cell-based", "procedure": "The gastric cancer cells and normal cells were cultured in PRMI 1640 medium supplement with 10% FCS serum. Other method is similar to example 8."}},
  "data": [
    {"smiles": "COC(=O)C[C@](O)(CCCC(C)(C)O)C(=O)O[C@@H]1C(OC)=C[C@]23CCCN2CCc2cc4c(cc2[C@H]13)OCO4", "note": "[HHT, Homoharringtonine]", "values": [
      {"measurement": "Apoptosis (%)", "setting": "[1]; HHT 10 ng/ml", "value": "33.8 ± 4.8", "unit": "%"},
      {"measurement": "Apoptosis (%)", "setting": "[1]; HHT 50 ng/ml", "value": "42.8 ± 5.2", "unit": "%"},
      {"measurement": "Apoptosis (%)", "setting": "[1]; HHT 100 ng/ml", "value": "60.2 ± 8.9", "unit": "%"},
      {"measurement": "Apoptosis (%)", "setting": "[1]; HHT 500 ng/ml", "value": "92.0 ± 10.8", "unit": "%"},
      {"measurement": "Apoptosis (%)", "setting": "[1]; Table 4, HHT (50 ng/ml) alone or in combination", "value": "42.8 ± 5.2", "unit": "%"},
      {"measurement": "inhibition at 1 µg/mL", "setting": "[2]", "value": "73.8 ± 8.1", "unit": "%"},
      {"measurement": "inhibition of HL-60 TK activity", "setting": "[3]; 10^−7 M", "value": 78.5, "unit": "%"},
      {"measurement": "inhibition of HL-60 TK activity", "setting": "[3]; 10^−8 M", "value": 12.2, "unit": "%"},
      {"measurement": "% of control activity (TK)", "setting": "[3]; HL-60 leukemia cells, 10^−6 M", "value": 0.6, "unit": "%"},
      {"measurement": "% of control activity (TK)", "setting": "[3]; HL-60 leukemia cells, 10^−8 M", "value": "87.8 ± 12", "unit": "%"},
      {"measurement": "% of control activity (TK)", "setting": "[3]; Table 8, concentration not given", "value": "21.5 ± 4.0", "unit": "%"},
      {"measurement": "Tumor incidence (%)", "setting": "[4]", "value": "35.8 ± 4.5", "unit": "%"},
      {"measurement": "Number of His^+ revertants/plate", "setting": "[5]; TA98 +S, 0.1 μg/plate", "value": "34 ± 4", "unit": "revertants/plate"},
      {"measurement": "Number of His^+ revertants/plate", "setting": "[5]; TA98 +S, 1 μg/plate", "value": "32 ± 4", "unit": "revertants/plate"},
      {"measurement": "Number of His^+ revertants/plate", "setting": "[5]; TA98 +S, 10 μg/plate", "value": "36 ± 3", "unit": "revertants/plate"},
      {"measurement": "Number of His^+ revertants/plate", "setting": "[5]; TA98 +S, 100 μg/plate", "value": "34 ± 4", "unit": "revertants/plate"},
      {"measurement": "Number of His^+ revertants/plate", "setting": "[5]; TA98 −S, 0.1 μg/plate", "value": "29 ± 3", "unit": "revertants/plate"},
      {"measurement": "Number of His^+ revertants/plate", "setting": "[5]; TA98 −S, 1 μg/plate", "value": "30 ± 3", "unit": "revertants/plate"},
      {"measurement": "Number of His^+ revertants/plate", "setting": "[5]; TA98 −S, 10 μg/plate", "value": "38 ± 4", "unit": "revertants/plate"},
      {"measurement": "Number of His^+ revertants/plate", "setting": "[5]; TA98 −S, 100 μg/plate", "value": "32 ± 4", "unit": "revertants/plate"},
      {"measurement": "carcinogenic and mutagenic action", "setting": "[6]", "value": "no carcinogenic and mutagenic action"},
      {"measurement": "NBT (%)", "setting": "[7]", "value": "58 ± 8.9", "unit": "%"}
    ]}
  ]
}
